Source: article PMC10411625, “Rationally designed stapled peptides allosterically inhibit PTBP1–RNA-binding” (Chemical Science, 2023)

Key:
SRSF1 = target: T1, SRSF1 (Homo sapiens, UniProt Q07955); assay: Competitive fluorescence polarization assay, SRSF1 and RNA-S; type: binding; conditions: Fig. 3C; competitive FP, 400 nM SRSF1, 1 nM Cy5-labeled RNA-S, pH 7.0; read-out: P-6 Ki, construct SRSF1
T1 construct: SRSF1-RRM12 (1-195); His tag (cleaved yes); made in house; host or cells: E. coli BL21 (DE3)
T1 sequence (Q07955 1-195, species assumed): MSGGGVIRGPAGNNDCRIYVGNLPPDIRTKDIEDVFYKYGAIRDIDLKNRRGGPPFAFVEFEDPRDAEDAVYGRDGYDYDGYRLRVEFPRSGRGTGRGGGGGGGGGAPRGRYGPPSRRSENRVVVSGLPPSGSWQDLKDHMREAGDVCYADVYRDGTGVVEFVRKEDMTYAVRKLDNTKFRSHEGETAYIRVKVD
Text: The RRM domain is the most commonly occurring RNA-binding domain in the proteome making it challenging to find selective inhibitors.[23,46] Although various ligands have been described, their selectivity is rarely investigated, with an exception for the Musashi-1 inhibitor Ro 08-2750.[47–58] To investigate whether P-6 has an effect on the RNA-binding of other dual RRM containing proteins, we evaluated its inhibitory potency against another hnRNP protein (hnRNP A2/B1) as well as a splicing factor from the SR-protein class (SRSF1).[1] We evaluated P-6 in competitive fluorescence polarization assays using previously described RNAs recognized by these proteins.[59] […]
performed in FP bufferPTBP1. […]
serially diluted in the same buffer. […]
a final concentration of 10 nM probe. […]
the settings mentioned previously.
Fluorescence polarization assay with SRSF1
Fluorescence polarization was
Fluorescence polarization assay with hnRNPA2/B1
For the competitive assay 10 nM
Microscale thermophoresis […]
afterwards serially diluted into FP buffer.
The data was evaluated at […]
experiments were performed in duplicates.
Circular Dichroism Spectroscopy […]
secondary structure analysis with a reference data set. For experiments with PTBP1 constructs the […]

HEK293T cells = assay: Cell viability assay (CellTiterGlo 2.0); type: cell-based; conditions: CellTiterGlo 2.0, concentrations of up to 300 μM
Experimental: protein was buffer exchanged into CD-Buffer using spin columns and measurements were performed in this buffer under similar conditions with protein concentrations of 0.2 mg/ml.
Co-Crystallisation of RRM1Δα3 with P-6
Protein construct RRM1Δα3 was purified using the protocol discussed above and concentrated to 14 mg/ml. P-6 was dissolved in SEC buffer and added in a 1.5 molar excess to the protein solution. After removal of particles by centrifugation (20000 x g, 4 °C, 10 min) sitting-drop experiments were set up by adding 200 nl of protein/ligand to 100 nl reservoir solution (1.89 M (NH4)2SO4, 0.1 M HEPES pH 6.86, 2% v/v PEG400) in MRC 3-drop plates. Sealed plates were incubated at 20 °C using a Formulatrix RockImager and crystals were obtained after several days. Prior to flash-freezing the crystals were cryo conserved by adding 0.5 µl reservoir solution containing 20% v/v glycerol to the drop.
X-ray data collection and processing
X-ray diffraction data was collected at X10SA (PXII) at Swiss Light Source. […]
HEK293T cells were seeded at 30000 cells/well in 75 µl DMEM supplemented with 10% FBS with 1x Pen-Strep (Gibco) in 96-well plates on the day prior the experiment. […] Cell viability was read out using CellTiterGlo 2.0 (Promega) according to the manufacturers protocol. Viability was calculated in % of signal normalized to the DMSO controls.

For `CC(=O)N[C@@H](CC(N)=O)C(=O)N[C@@H](CCC(N)=O)C(=O)N[C@@]1(C)CCCC=CCCCC2(CCCC=CCCC[C@](C)(C(=O)N[C@H](C(=O)N[C@@H](CC(N)=O)C(N)=O)C(C)C)NC(=O)[C@H](CCC(N)=O)NC(=O)[C@H](CC(C)C)NC(=O)[C@H](C)NC2=O)NC(=O)[C@H](CCC(N)=O)NC(=O)[C@H](C)NC(=O)[C@H](CCCNC(=N)N)NC1=O` (some centres unmarked) [Peptide P-6], the Ki (SRSF1) was > 1000 µM and the “cell viability (in words)” value (HEK293T cells) was “not affected”.
